{"source": "patent US10669310B2", "about": "“Peptide for cancer treatment and pharmaceutical composition containing same” (TOKUSHIMA UNIVERSITY, priority 2016, dated 2020)", "key": {"MCF-7 cells": {"tested_on": "MCF-7 cells", "type": "cell-based, human", "procedure": "(§1) Human breast cancer cell line MCF-7 and mammary epithelial cell line MCF-10A were purchased from American Type Culture Collection (ATCC, Manassas, Va., USA). Breast cancer cell line KPL-3C (J. Kurebayashi, et al., Br. J. Cancer 74, 200-207 (1996)) was kindly provided by Dr. Junichi Kurebayashi (Kawasaki Medical School). All cell lines were monolayer cultured in an appropriate medium supplemented with 10% FBS. The cells were maintained at 37° C. under humidified atmosphere containing 5% CO2.\n(§2) In each experiment, the respective cells were seeded in a 48-well plate (2×10^4 cells/mL), a 6-well plate (3×10^5 cells/mL), or a 10-cm dish (2×10^6 cells/10 mL). MCF-7 cells were seeded in MEM (Thermo Fisher Scientific) supplemented with 10% FBS (Nichirei Biosciences Inc., Tokyo, Japan), 1% Antibiotic/Antimycotic solution (Thermo Fisher Scientific, Waltham, Mass., USA), 0.1 mM NEAA (Thermo Fisher Scientific), 1 mM sodium pyruvate (Thermo Fisher Scientific), and 10 μg/mL insulin (Sigma, St. Louis, Mo., USA). KPL-3C cells were seeded in RPMI (Thermo Fisher Scientific) supplemented with 10% FBS and 1% Antibiotic/Antimycotic solution. MCF-10A cells were seeded in MEBM (Lonza) supplemented with a Single Quots kit (BPE, hydrocortisone, hEGF, insulin, gentamycin/amphoterin-B) (Lonza, Walkersville, Md., USA) and 100 ng/mL cholera toxin. For 17β-estradiol (E2) (Sigma) stimulation, the media for MCF-7 and KPL-3C were changed to phenol red-free DMEM/F12 (Thermo Fisher Scientific) supplemented with 10% FBS, 1% Antibiotic/Antimycotic solution, 0.1 mM NEAA, 1 mM sodium pyruvate, and 10 μg/mL insulin on the day after seeding. Twenty-four hours later, the cells were treated with 10 nM E2 and a peptide (for example, 11R-ERAP or a stapled ERAP), or with 10 nM E2 alone.\nWhen carrying out treatment with tamoxifen (Sigma) or fulvestrant (LKT laboratories, St. Paul, Minn., USA), cells were treated with 10 nM tamoxifen or 2 μM fulvestrant simultaneously with the above-mentioned treatment with E2 and a peptide or with E2 alone.\nCell growth assays on MCF-7, KPL-3C, and MCF-10A were carried out as described previously using a Cell Counting Kit-8 (CCK-8) (Dojindo, Kumamoto, Japan) (T. Yoshimaru, et al., Nat. Commun. 4, 2443 (2013)). The data are shown by mean±SE of three independent experiments."}, "MCF-10A cells": {"tested_on": "MCF-10A cells", "experiment": "Cell growth (MTT) assay, MCF-10A cells", "type": "cell-based, human", "conditions": "normal mammary epithelial cells, ERα-negative and BIG3-negative", "procedure": "as §1\nas §2, with “For 17β-estradiol (E2) (Sigma) stimulation, the media for MCF-7 and KPL-3C were changed to phenol red-free DMEM/F12 (Thermo Fisher Scientific) supplemented with 10% FBS, 1% Antibiotic/Antimycotic solution, 0.1 mM NEAA, 1 mM sodium pyruvate, and 10 μg/mL insulin on the day after seeding. Twenty-four hours later, the cells were treated with 10 nM E2 and a peptide (for example, 11R-ERAP or a stapled ERAP), or with 10 nM E2 alone.” left out"}, "BIG3-PHB2 interaction": {"target": "T1, BIG3-PHB2 interaction (Homo sapiens, UniProt Q99623)", "T1 construct": "complex formation between the endogenous BIG3 and PHB2 in ERα-positive breast cancer cell line MCF-7; endogenous in cells; host or cells: MCF-7", "T1 sequence (Q99623 2-299 limits assumed)": "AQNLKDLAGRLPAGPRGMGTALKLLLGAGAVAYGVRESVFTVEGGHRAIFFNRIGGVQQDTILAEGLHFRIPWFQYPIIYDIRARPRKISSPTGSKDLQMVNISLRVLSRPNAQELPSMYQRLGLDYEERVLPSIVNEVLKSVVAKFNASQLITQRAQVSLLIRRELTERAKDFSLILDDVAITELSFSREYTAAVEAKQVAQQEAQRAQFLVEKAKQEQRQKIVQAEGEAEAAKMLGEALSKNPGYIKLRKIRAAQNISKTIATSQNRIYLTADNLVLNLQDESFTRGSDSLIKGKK", "experiment": "Co-immunoprecipitation with anti-BIG3 antibody in MCF-7 cells", "type": "cell-based", "conditions": "MCF-7, 1 μM, 24 hours after treatment", "procedure": "Immunoblot analyses were performed as described previously (T. Yoshimaru, et al., Nat. Commun. 4, 2443 (2013)). After performing SDS-PAGE, the membranes blotted with proteins were blocked with 4% BlockAce solution (Dainippon Pharmaceutical, Osaka, Japan) for three hours and then incubated with antibodies against the following proteins: BIG3 (1:1,000) (T. Yoshimaru, et al., Nat. Commun. 4, 2443 (2013)); PHB2 (1:1,000) (Abeam, Cambridge, UK); Akt, phosphorylated Akt (S473) (587F11, 1:1,000); p44/42 MAPK, phosphorylated p44/42 MAPK (T202/Y204) (1:1,000); α/β-tubulin (1:1,000) (Cell Signaling Technology, Danvers, Mass., USA); and LMNB1 (1:100) (Sigma). After incubation with an HRP-labeled secondary antibody (anti-mouse IgG-HRP, 1:5,000; anti-rat IgG-HRP; 1:5,000; or anti-rabbit IgG-HRP, 1:1,000) (Santa Cruz Biotechnology, Dallas, Tex., USA) for one hour, the blots were developed with an Enhanced Chemiluminescence (ECL) system (GE Healthcare, Buckinghamshire, UK) and scanned using an Image Reader LAS-3000 mini (Fujifilm, Tokyo, Japan). All the experiments were performed at least in triplicate.\nImmunoprecipitation analysis was performed as described previously (T. Yoshimaru, et al., Nat. Commun. 4, 2443 (2013)). Cell lysates were pre-cleared with normal IgG and rec-Protein G Sepharose 4B (Thermo Fisher Scientific) at 4° C. for three hours. Then, the supernatants were incubated with 5 μg of an antibody against BIG3 or an antibody against PHB2 at 4° C. for twelve hours. Next, the antigen-antibody complexes were precipitated using rec-Protein G Sepharose 4B at 4° C. for one hour. The immunoprecipitated protein complexes were washed several times with a lysis buffer. Then, SDS-PAGE and immunoblot analyses were carried out as described above."}, "[1]": {"tested_on": "KPL-3C orthotopic breast cancer xenografts", "experiment": "In vivo tumor growth inhibition, KPL-3C orthotopic xenograft, intraperitoneal", "parameters": "species or system BALB/c nude mice", "conditions": "1 mg/kg or 0.1 mg/kg i.p. every four or seven days, up to 28 days", "procedure": "KPL-3C cell suspensions (1×10^7 cells/mouse) were mixed with an equal volume of Matrigel (BD) and injected (200 μL in total) into the mammary fat pads of 6-week-old female BALB/c nude mice (Charles River Laboratories, Tokyo, Japan). The mice were housed in a pathogen-free isolation facility with a twelve-hour light/dark cycle and were fed solid rodent chow and water ad libitum. The tumors developed over several days and reached sizes of approximately 100 mm^3 [calculated as ½×(width×length^2)]. The mice were randomized into the following eleven treatment groups (five heads per group):\nE2 was administered via application of a solution to the neck skin, and regarding the other treatments, administration was performed via intraperitoneal injection unless other administration methods are stated. The tumor volume was measured with calipers for 28 days, and then the mice were subjected to scheduled sacrifice to remove tumors. All the experiments were performed in accordance with the guidelines of the animal facility at Tokushima University."}, "[2]": {"tested_on": "ERα target genes TFF1 and CCND1", "experiment": "ERα target gene expression in removed tumors", "type": "in vivo, BALB/c nude mice", "conditions": "0.02, 0.1 or 1 mg/kg i.p. every four days or every seven days", "procedure": "The expression of the ERα target genes (TFF1 and CCND1) was evaluated by real-time RT-PCR as described previously (T. Yoshimaru, et al., Nat. Commun. 4, 2443 (2013)). Each sample was normalized to the β2-MG mRNA content, and the results were expressed as multiples (-fold) of the expression level in untreated cells, with that level being defined as 1.0. The data represent the mean±SD of three independent experiments. The primers used for RT-PCR were as follows: […]"}}}
{"smiles": "CSCC[C@@H](NC(=O)[C@H]1CCC(=O)NCCCCNC(=O)CC[C@@H](NC(=O)[C@@H](CC(C)C)NC(=O)[C@@H](CCC(N)=O)NC(=O)[C@@H](CC(C)C)NC(=O)[C@@H](CCCNC(=N)N)NC(=O)[C@@H](CCC(N)=O)NC(=O)[C@@H](CCCNC(=N)N)NC(C)=O)C(=O)N[C@H](CC(C)C)C(=O)N[C@H](CC(=O)O)C(=O)N[C@H](CO)C(=O)N1)C(=O)N[C@H](CCC(N)=O)C(N)=O", "note": "[RI stapled ERAP No. 12]", "values": [{"measurement": "duration of significant cell growth inhibitory effects", "setting": "MCF-7 cells; 1 μM, E2-dependent growth of MCF-7", "result": "seven"}, {"measurement": "IC50", "setting": "MCF-7 cells; 96 h", "result": 500, "unit": "nM"}, {"measurement": "effect on MCF-10A cell growth", "setting": "MCF-10A cells", "result": "not inhibited"}, {"measurement": "inhibition of endogenous BIG3-PHB2 complex formation", "setting": "BIG3-PHB2 interaction", "result": "inhibited endogenous BIG3-PHB2 complex formation"}, {"measurement": "E2-dependent tumor growth", "setting": "[1]", "result": "almost fully inhibited"}, {"measurement": "E2-dependent expression of TFF1 and CCND1 in tumors", "setting": "[2]", "result": "significantly suppressed"}]}
